# Measurements taken from patent US20090068290A1, “BIFEPRUNOX DOSES FOR TREATING SCHIZOPHRENIA” (priority 2006, published 2009).
# What was measured:
# [1] = Clinical laboratory assessments (prolactin), Clinical Study Three; conditions: olanzapine 15 mg; 6 weeks
# Excerpt: To assess the safety and tolerability of bifeprunox using physical examination, weight, waist circumference, vital signs (pulse rate and systolic/diastolic blood pressure [BP], and oral temperature), 12-lead electrocardiogram (ECG), clinical laboratory assessments (hematology, biochemistry including fasting insulin level, fasting glucose, fasting lipid profile, urinalysis, special laboratory assessments for prolactin, IGF-1, IGFBP-3, and thyroid function), need for anticholinergic treatment during double-blind treatment period, concomitant medication use, adverse event (AE) monitoring, and assessments of abnormal movement including the Simpson-Angus Scale (SAS), Barnes Akathisia Scale (BAS), and Abnormal Involuntary Movement Scale (AIMS).
# [2] = tested on: adult subjects with schizophrenia; experiment: PANSS general psychopathology subscale score, Clinical Study One; format: in vivo, human; conditions: Risperidone 6 mg, ITT population
# Experimental: There were five treatment groups in this study. […] Study medication was administered once daily. After Baseline measurements were performed, the titration phase was begun. Bifeprunox treated subjects were titrated up to 5 mg, 10 mg or 20 mg according to a standardized titration schedule (Day 1: 0.125 mg, Day 2: 0.25 mg, Day 3: 0.5 mg, Day 4: 1.0 mg, Day 5: 2.0 mg, Day 6: 5.0 mg, Day 7: 10.0 mg, Day 8: 20 mg). When the assigned dose was reached, subjects were maintained at that dose for the remainder of the six-week treatment period.
# The change in the Positive and Negative Symptom Scale (PANSS) total score, from baseline to endpoint, was the primary outcome measure. Secondary efficacy measures included: PANSS positive, PANSS negative, PANSS general psychopathology (GPP) score, PANSS-derived Brief Psychiatric Rating Scale (BPRS) score, Clinical Global Impressions-Severity of Illness (CGI-S), CGI-Improvement (CGI-I) scores, and responder rates. Safety and tolerability evaluations included extrapyramidal symptoms (EPS), weight gain, lipid profile, and serum prolactin.
# [3] = tested on: adult subjects with schizophrenia; experiment: Adverse events (TEAE, SAE, special interest, EPS-related TEAE), Clinical Study Two; format: in vivo, human; conditions: Risperidone 6 mg
# Experimental: Subjects who completed this study had the option to continue in the long-term. […] Risperidone-treated subjects were titrated from 2 mg to 6 mg daily over a three-day period and were subsequently maintained at 6 mg/day for the remainder of the treatment period. […] Blood samples were also obtained at Screening/Baseline, Week 3, and Week 6 for clinical laboratory assessments.
# [4] = Body weight, Clinical Study One; format: in vivo, human; conditions: Risperidone 6 mg
# Experimental: Statistical testing of the change from Baseline in weight was performed using similar methodology to that used for the secondary efficacy parameters (an ANCOVA model with factors for treatment and weight at Baseline). Pairwise comparisons of the bifeprunox treatment groups versus placebo were all statistically significant (bifeprunox 5 mg [p=0.025], bifeprunox 10 mg [p=0.009] and bifeprunox 20 mg [p=0.031] for the difference between bifeprunox and placebo mean change from Baseline in weight at Endpoint.
# [5] = tested on: adult subjects with schizophrenia; experiment: PANSS total score, Clinical Study Two (6-week, risperidone-referenced); format: in vivo, human; conditions: Risperidone 6 mg, LOCF, ITT
# Experimental: Treatment started with a single-blind placebo lead-in period of at least three days, followed by titration from 0.25 mg up to 30 mg/day or 40 mg/day of bifeprunox for bifeprunox-treated subjects.
# Rating scale assessments were performed weekly, except for week 5, to measure the change from baseline to endpoint of the PANSS total score. Other assessments included: PANSS positive symptom subscale score, PANSS negative symptom subscale score, PANSS general pschopathology subscale score, BPRS total score, BPRS psychosis score, the CGI-S score, the CGI-I score, responder rates based on the PANSS total score, and the Calgary Depression Scale for Schizophrenia (CDSS).
# Subjects who completed this study had the option to continue in the long-term. […] After completing a Single-Blind placebo lead-in period of at least three days, bifeprunox-treated subjects were titrated from 0.25 mg up to 30 mg/day or 40 mg/day according to a standardized titration scheme over an eight-day period. When the assigned dose was reached, subjects were maintained at that dose for the remainder of the six week treatment period. […] Rating scale assessments for efficacy and abnormal movement disorders were done weekly except for Week 5. Safety assessments were performed at Screening, during treatment and at the end of the study. Subject satisfaction with study medication was assessed at Week 6. Samples of blood were obtained at Weeks 2, 4, and 6 for determination of bifeprunox in plasma. Blood samples were also obtained at Screening/Baseline, Week 3, and Week 6 for clinical laboratory assessments.
# Diagnosis and Main Criteria for Inclusion: Male or female subjects 18-75 years of age with schizophrenia (per DSM-IV-TR criteria). Subjects had to have a total score on the PANSS between 70 and 120; at least two of four PANSS items (conceptual disorganization, hallucinatory behavior, suspiciousness, unusual thought content) had to have a score ≧4; and the score on the CGI-S had to be at least 4.
structure (smiles),measurement,setting,value
"Cc1cc2c(s1)Nc1ccccc1N=C2N1CCN(C)CC1 [Olanzapine, olanzapine, reference compound]",prolactin,[1],increases in prolactin
"Cc1nc2n(c(=O)c1CCN1CCC(c3noc4cc(F)ccc34)CC1)CCCC2 [Risperidone, risperidone, reference compound]","Change from Baseline in PANSS General Psychopathology Subscale Score, Mean (S.D.)",[2]; Endpoint LOCF,−6.8 (7.8)
same,"Change from Baseline in PANSS General Psychopathology Subscale Score, Median",[2]; Endpoint LOCF,−5
same,"Change from Baseline in PANSS General Psychopathology Subscale Score, Mean (S.D.)","[2]; Week 1, LOCF",−3.4 (5.8)
same,"Change from Baseline in PANSS General Psychopathology Subscale Score, Median","[2]; Week 1, LOCF",−3
same,"Change from Baseline in PANSS General Psychopathology Subscale Score, Mean (S.D.)","[2]; Week 2, LOCF",−5.8 (7.1)
same,"Change from Baseline in PANSS General Psychopathology Subscale Score, Median","[2]; Week 2, LOCF",−6
same,"Change from Baseline in PANSS General Psychopathology Subscale Score, Mean (S.D.)","[2]; Week 3, LOCF",−6.9 (7.3)
same,"Change from Baseline in PANSS General Psychopathology Subscale Score, Median","[2]; Week 3, LOCF",−6
same,"Change from Baseline in PANSS General Psychopathology Subscale Score, Mean (S.D.)","[2]; Week 4, LOCF",−6.3 (7.7)
same,"Change from Baseline in PANSS General Psychopathology Subscale Score, Median","[2]; Week 4, LOCF",−5
same,"AKATHISIA, %",[3],(10%)
same,"BRADYKINESIA, %",[3],(1%)
same,"DISTURBANCE IN ATTENTION, %",[3],(1%)
same,"DIZZINESS, %",[3],(6%)
same,"DYSARTHRIA, %",[3],(2%)
same,"DYSKINESIA, %",[3],(<1%)
same,"Dystonia, %",[3],(7%)
same,"EXTRAPYRAMIDAL DISORDER, %",[3],(14%)
same,"HEADACHE NOS, %",[3],(15%)
same,"Hypoaesthesia, %",[3],1 (<1%)
same,"Memory Impairment, %",[3],1 (<1%)
same,"NERVOUS SYSTEM DISORDERS, %",[3],(53%)
same,"Parkinsonism, %",[3],1%
same,"SEDATION, %",[3],7%
same,"SINUS HEADACHE, %",[3],1 (<1%)
same,"SOMNOLENCE, %",[3],6%
same,"TARDIVE DYSKINESIA, %",[3],2%
same,"TREMOR, %",[3],5%
same,incidence of severe TEAE of schizophrenia,[3],2%
same,subjects with at least one TEAE,[3],78%
same,mean weight change (increase),[4],4.8 lb
same,subjects who decreased their weight by ≧7%,[4],No subjects
same,subjects who increased their weight by ≧7%,[4],13%
same,"Change from Baseline in PANSS Total Score, Mean (SD)",[5]; Week 1,−8.7 (10.2)
same,"Change from Baseline in PANSS Total Score, Median",[5]; Week 1,−9
same,"Change from Baseline in PANSS Total Score, Mean (SD)",[5]; Week 2,−14.8 (14.2)
same,"Change from Baseline in PANSS Total Score, Median",[5]; Week 2,−15
same,"Change from Baseline in PANSS Total Score, Median",[5]; Week 3,−18
same,"Change from Baseline in PANSS Total Score, Mean (SD)",[5]; Week 4,−19.2 (17.0)
same,"Change from Baseline in PANSS Total Score, Median",[5]; Week 4,−20
same,"Change from Baseline in PANSS Total Score, Mean (SD)",[5]; Week 6/Endpoint,−19.7 (19.3)
same,"Change from Baseline in PANSS Total Score, Median",[5]; Week 6/Endpoint,−21
